Laboratory results from ChEMBL document CHEMBL2029348, “Synthesis, biological evaluation, and molecular docking studies of N,1,3-triphenyl-1H-pyrazole-4-carboxamide derivatives as anticancer agents” (Bioorg Med Chem Lett, 2012).
pIC50: −log10 of the molar value. Calls of active or inactive are those of the source. No cut-off for these calls is given here.

Columns and labels:
HCT-116 = assay: Cytotoxicity against human HCT116 cells after 48 hrs by MTT assay; assay type: functional, cell-based; conditions: HCT-116, 48 h
MCF7 = assay: Cytotoxicity against human MCF7 cells after 48 hrs by MTT assay; assay type: functional, cell-based; conditions: MCF7, 48 h
Aurora kinase A = molecular target: T1, Aurora kinase A (Homo sapiens, UniProt O14965); assay: Inhibition of human recombinant Aurora A kinase using biotinylated peptide substrate preincubated for 15 mins with compound measured after 30 mins by fluorescence analysis
T1 sequence (O14965 whole entry): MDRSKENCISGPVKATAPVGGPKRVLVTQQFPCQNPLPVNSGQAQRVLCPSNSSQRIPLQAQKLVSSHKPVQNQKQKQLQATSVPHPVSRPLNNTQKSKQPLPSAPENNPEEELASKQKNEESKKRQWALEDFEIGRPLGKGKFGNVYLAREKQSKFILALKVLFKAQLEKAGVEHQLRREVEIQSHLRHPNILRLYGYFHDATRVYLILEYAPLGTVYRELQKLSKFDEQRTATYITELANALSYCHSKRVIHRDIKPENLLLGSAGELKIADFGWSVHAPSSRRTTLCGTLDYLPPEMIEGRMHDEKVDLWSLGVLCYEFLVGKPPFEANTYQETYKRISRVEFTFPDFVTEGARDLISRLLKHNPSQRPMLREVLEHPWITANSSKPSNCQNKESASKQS

[1] = molecular target: T2, Aurora kinase A (Homo sapiens) (UniProt O14965); assay: Inhibition of Aurora A kinase in human HCT116 cells at 0.5 to 2 uM by Western blot analysis; assay type: cell-based; conditions: HCT-116
T2 sequence (whole entry): T1 sequence (O14965 whole entry)

| pIC50 (Aurora kinase A) | inhibition [1] | Compound | pIC50 (HCT-116) | pIC50 (MCF7) |
| --- | --- | --- | --- | --- |
| 5.88 |  | COc1ccc(NC(=O)c2cn(-c3ccccc3)nc2-c2ccccc2)cc1 | 5.87 | 5.77 |
| 4.91 |  | COc1ccc(-c2nn(-c3ccccc3)cc2C(=O)Nc2ccc(Br)cc2)cc1 | 5.23 | 5.09 |
| 5.79 |  | COc1ccc(NC(=O)c2cn(-c3ccccc3)nc2-c2ccc(OC)cc2)cc1 | 5.82 | 5.75 |
| 5.45 |  | O=C(Nc1ccc(Cl)cc1)c1cn(-c2ccccc2)nc1-c1ccccc1 | 5.45 | 5.41 |
| 5.84 |  | COc1ccc(NC(=O)c2cn(-c3ccccc3)nc2-c2ccc(C)cc2)cc1 | 5.84 | 5.79 |
| 5.14 |  | Cc1ccc(-c2nn(-c3ccccc3)cc2C(=O)Nc2ccc(Br)cc2)cc1 | 5.27 | 5.22 |
| 6.19 |  | CCOc1ccc(NC(=O)c2cn(-c3ccccc3)nc2-c2ccc(C)cc2)cc1 | 6.11 | 5.99 |
| 5.24 |  | O=C(Nc1ccc(Br)cc1)c1cn(-c2ccccc2)nc1-c1ccc(Cl)cc1 | 5.36 | 5.27 |
| 5.58 |  | Cc1ccc(-c2nn(-c3ccccc3)cc2C(=O)Nc2ccccc2)cc1 | 5.63 | 5.61 |
| 5.68 |  | O=C(Nc1ccccc1)c1cn(-c2ccccc2)nc1-c1ccc(Cl)cc1 | 5.66 | 5.63 |
| 5.52 |  | O=C(Nc1ccc(Cl)cc1)c1cn(-c2ccccc2)nc1-c1ccc([N+](=O)[O-])cc1 | 5.53 | 5.49 |
| 5.63 |  | O=C(Nc1ccccc1)c1cn(-c2ccccc2)nc1-c1ccccc1 | 5.64 | 5.63 |
| 5.56 |  | COc1ccc(-c2nn(-c3ccccc3)cc2C(=O)Nc2ccccc2)cc1 | 5.60 | 5.60 |
|  |  | Cc1cc(Nc2cc(N3CCN(C)CC3)nc(Sc3ccc(NC(=O)C4CC4)cc3)n2)n[nH]1 [TOZASERTIB] |  | 6.42 |
| 5.32 |  | Cc1ccc(-c2nn(-c3ccccc3)cc2C(=O)Nc2ccc(Cl)cc2)cc1 | 5.41 | 5.40 |
| 6.80 | Active | CCOc1ccc(NC(=O)c2cn(-c3ccccc3)nc2-c2ccc([N+](=O)[O-])cc2)cc1 | 6.41 | 6.34 |
| 5.26 |  | O=C(Nc1ccc(Br)cc1)c1cn(-c2ccccc2)nc1-c1ccc([N+](=O)[O-])cc1 | 5.39 | 5.28 |
| 5.25 |  | COc1ccc(-c2nn(-c3ccccc3)cc2C(=O)Nc2ccc(Cl)cc2)cc1 | 5.39 | 5.36 |
| 5.68 |  | O=C(Nc1ccccc1)c1cn(-c2ccccc2)nc1-c1ccc([N+](=O)[O-])cc1 | 5.70 | 5.65 |
| 6.11 |  | CCOc1ccc(NC(=O)c2cn(-c3ccccc3)nc2-c2ccc(OC)cc2)cc1 | 6.01 | 5.96 |
| 6.38 |  | CCOc1ccc(NC(=O)c2cn(-c3ccccc3)nc2-c2ccccc2)cc1 | 6.21 | 6.06 |
| 6.08 |  | COc1ccc(NC(=O)c2cn(-c3ccccc3)nc2-c2ccc(Cl)cc2)cc1 | 5.88 | 5.81 |
| 5.14 |  | O=C(Nc1ccc(Br)cc1)c1cn(-c2ccccc2)nc1-c1ccccc1 | 5.35 | 5.24 |
| 6.10 |  | COc1ccc(NC(=O)c2cn(-c3ccccc3)nc2-c2ccc([N+](=O)[O-])cc2)cc1 | 5.99 | 5.92 |
| 6.66 |  | CCOc1ccc(NC(=O)c2cn(-c3ccccc3)nc2-c2ccc(Cl)cc2)cc1 | 6.38 | 6.25 |
| 5.50 |  | O=C(Nc1ccc(Cl)cc1)c1cn(-c2ccccc2)nc1-c1ccc(Cl)cc1 | 5.52 | 5.43 |
